ChEMBL document CHEMBL3351447, “Design, synthesis and anticancer evaluation of tetrahydro-β-carboline-hydantoin hybrids” (Bioorg Med Chem Lett, 2014)
Active and inactive are the calls of the source. The rule behind the calls is not given here.

Key:
[1] = Cytotoxicity against human ME180 cells after 72 hrs by MTT assay; type: functional, cell-based; conditions: ME-180, 72 h
HeLa = assay: Cytotoxicity against human HeLa cells after 72 hrs by MTT assay; type: functional, cell-based
[2] = Cytotoxicity against human PC3 cells after 72 hrs by MTT assay; type: functional, cell-based; conditions: PC-3, 72 h
MCF7 = assay: Cytotoxicity against human MCF7 cells after 72 hrs by MTT assay; type: functional, cell-based; conditions: MCF7, 72 h
A549 = assay: Cytotoxicity against human A549 cells after 72 hrs by MTT assay; type: functional, cell-based; conditions: A549, 72 h
[3] = Selectivity index, ratio of IC50 for human RWPE cells to IC50 for human PC3 cells; type: functional
PC-3 [4] = assay: Induction of apoptosis in human PC3 cells assessed as early apoptotic cells at 6 uM after 48 hrs by orange/ethidium bromide staining based fluorescence microscopy; type: functional
PC-3 [5] = assay: Induction of apoptosis in human PC3 cells assessed as induction of membrane blebbing at 3 and 6 uM after 48 hrs by orange/ethidium bromide staining based fluorescence microscopy; type: functional, cell-based
PC-3 [6] = assay: Induction of cell cycle arrest in human PC3 cells assessed as accumulation at G0/G1 phase at 3 uM after 48 hrs by propidium iodide staining based flow cytometry (reference value: 55%); type: functional
PC-3 [7] = assay: Induction of cell cycle arrest in human PC3 cells assessed as accumulation at G0/G1 phase at 6 uM after 48 hrs by propidium iodide staining based flow cytometry (reference value: 55%); type: functional
PC-3 [8] = assay: Induction of apoptosis in human PC3 cells assessed as early apoptotic cells at 1 uM after 48 hrs by orange/ethidium bromide staining based fluorescence microscopy; type: functional
PC-3 [9] = assay: Induction of cell cycle arrest in human PC3 cells assessed as accumulation at S phase at 3 uM after 48 hrs by propidium iodide staining based flow cytometry (reference value: 15.8%); type: functional
PC-3 [10] = assay: Induction of apoptosis in human PC3 cells assessed as early apoptotic cells at 3 uM after 48 hrs by orange/ethidium bromide staining based fluorescence microscopy; type: functional
PC-3 [11] = assay: Induction of cell cycle arrest in human PC3 cells assessed as accumulation at G2/M phase at 6 uM after 48 hrs by propidium iodide staining based flow cytometry (reference value: 20.9%); type: functional
PC-3 [12] = assay: Induction of apoptosis in human PC3 cells assessed as induction of apoptotic body formation at 3 and 6 uM after 48 hrs by orange/ethidium bromide staining based fluorescence microscopy; type: functional, cell-based
PC-3 [13] = assay: Induction of cell cycle arrest in human PC3 cells assessed as accumulation at S phase at 6 uM after 48 hrs by propidium iodide staining based flow cytometry (reference value: 15.8%); type: functional
PC-3 [14] = assay: Induction of cell cycle arrest in human PC3 cells assessed as accumulation at G2/M phase at 3 and 6 uM after 48 hrs by propidium iodide staining based flow cytometry; type: functional
PC-3 [15] = assay: Induction of cell cycle arrest in human PC3 cells assessed as accumulation at G2/M phase at 3 uM after 48 hrs by propidium iodide staining based flow cytometry (reference value: 20.9%); type: functional
PC-3 [16] = assay: Induction of apoptosis in human PC3 cells assessed as induction of cell shrinkage at 3 and 6 uM after 48 hrs by orange/ethidium bromide staining based fluorescence microscopy; type: functional
PC-3 [17] = assay: Induction of apoptosis in human PC3 cells assessed as induction of chromatin condensation with destructive fragmentation of the nucleus at 3 and 6 uM after 48 hrs by orange/ethidium bromide staining based fluorescence microscopy; type: functional, cell-based

Structure (SMILES): COc1cccc2c1C(=O)c1c(O)c3c(c(O)c1C2=O)C[C@@](O)(C(=O)CO)C[C@@H]3O[C@H]1C[C@H](N)[C@H](O)[C@H](C)O1 [DOXORUBICIN]
- IC50 [1]: 0.39 µM

Structure (SMILES): COc1cc([C@@H]2c3[nH]c4ccccc4c3C[C@H]3C(=O)N(c4ccc(Cl)cc4)C(=O)N23)ccc1O
- IC50 (HeLa): 30.3 µM
- IC50 [2]: 13.4 µM
- IC50 (MCF7): 42.2 µM
- IC50 [1]: > 100 µM
- IC50 (A549): > 100 µM

Structure (SMILES): O=C1[C@H]2Cc3c([nH]c4ccccc34)[C@@H](c3cccc(O)c3)N2C(=O)N1c1cccc(C(F)(F)F)c1
- IC50 (HeLa): 13.6 µM
- IC50 [2]: 11.2 µM
- IC50 (MCF7): 42.6 µM
- IC50 [1]: 22.6 µM
- IC50 (A549): 40 µM

Structure (SMILES): COc1cc([C@@H]2c3[nH]c4ccccc4c3C[C@@H]3C(=O)N(CCCl)C(=O)N23)ccc1O
- IC50 (HeLa): 33.1 µM
- IC50 [2]: 29.1 µM
- IC50 (MCF7): > 100 µM
- IC50 [1]: > 100 µM
- IC50 (A549): > 100 µM

Structure (SMILES): COc1cc([C@@H]2c3[nH]c4ccccc4c3C[C@@H]3C(=O)N(Cc4ccc(Br)cc4)C(=O)N23)ccc1O
- IC50 (HeLa): 84.3 µM
- IC50 [2]: 12 µM
- IC50 (MCF7): 19.9 µM
- IC50 [1]: > 100 µM
- IC50 (A549): > 100 µM

Structure (SMILES): O=C1[C@H]2Cc3c([nH]c4ccccc34)[C@@H](c3cccc(O)c3)N2C(=O)N1c1ccc(Cl)cc1
- IC50 (HeLa): 12.1 µM
- IC50 [2]: 10.3 µM
- IC50 (MCF7): 40.5 µM
- IC50 [1]: 17 µM
- IC50 (A549): 34.8 µM

Structure (SMILES): O=C1[C@@H]2Cc3c([nH]c4ccccc34)[C@@H](c3cccc(O)c3)N2C(=O)N1CCCl
- IC50 (HeLa): 60.3 µM
- IC50 [2]: 49 µM
- IC50 (MCF7): 48.2 µM
- IC50 [1]: 59.5 µM
- IC50 (A549): 68 µM

Structure (SMILES): O=C1[C@H]2Cc3c([nH]c4ccccc34)[C@@H](c3cccc(O)c3)N2C(=O)N1Cc1ccc(Br)cc1
- IC50 (HeLa): 11.2 µM
- IC50 [2]: 9.13 µM
- Ratio IC50 [3]: 1.7
- IC50 (MCF7): 27.9 µM
- IC50 [1]: 17.5 µM
- IC50 (A549): 35.4 µM

Structure (SMILES): O=C1[C@@H]2Cc3c([nH]c4ccccc34)[C@@H](c3cccc(O)c3)N2C(=O)N1c1ccc(Cl)cc1
- IC50 (HeLa): 6.5 µM
- Activity (PC-3 [4]): 42.5%
- Activity (PC-3 [5]): Active
- Activity (PC-3 [6]): 43.9%
- Activity (PC-3 [7]): 45.5%
- Activity (PC-3 [8]): 8%
- IC50 [2]: 6.08 µM
- Ratio IC50 [3]: 5
- Activity (PC-3 [9]): 15.8%
- IC50 (MCF7): 26 µM
- Activity (PC-3 [10]): 25%
- Activity (PC-3 [11]): 34.1%
- IC50 [1]: 24.6 µM
- Activity (PC-3 [12]): Active
- IC50 (A549): 16 µM
- Activity (PC-3 [13]): 11.8%
- fold change (FC) (PC-3 [14]): 1.63
- Activity (PC-3 [15]): 31.5%
- Activity (PC-3 [16]): Active
- Activity (PC-3 [17]): Active

Structure (SMILES): O=C1[C@@H]2Cc3c([nH]c4ccccc34)[C@@H](c3cccc(O)c3)N2C(=O)N1c1cccc(C(F)(F)F)c1
- IC50 (HeLa): 31.9 µM
- IC50 [2]: 37.1 µM
- IC50 (MCF7): 70.9 µM
- IC50 [1]: > 100 µM
- IC50 (A549): > 100 µM

Structure (SMILES): COc1cc([C@@H]2c3[nH]c4ccccc4c3C[C@H]3C(=O)N(Cc4ccc(Br)cc4)C(=O)N23)ccc1O
- IC50 (HeLa): 82.9 µM
- IC50 [2]: > 100 µM
- IC50 (MCF7): > 100 µM
- IC50 [1]: > 100 µM
- IC50 (A549): 77.5 µM

Structure (SMILES): COc1cc([C@@H]2c3cc4c(cc3[C@@H](O[C@@H]3O[C@@H]5CO[C@@H](C)O[C@H]5[C@H](O)[C@H]3O)[C@H]3COC(=O)[C@H]23)OCO4)cc(OC)c1O [ETOPOSIDE]
- IC50 (HeLa): 4.71 µM
- IC50 [2]: 14.4 µM
- Ratio IC50 [3]: 2
- IC50 [1]: 8.9 µM
- IC50 (A549): 50 µM

Structure (SMILES): COc1cc([C@@H]2c3[nH]c4ccccc4c3C[C@@H]3C(=O)N(c4ccc(Cl)cc4)C(=O)N23)ccc1O
- IC50 (HeLa): 30.6 µM
- IC50 [2]: 13.4 µM
- IC50 (MCF7): 19.7 µM
- IC50 [1]: > 100 µM
- IC50 (A549): > 100 µM

Structure (SMILES): O=C1[C@H]2Cc3c([nH]c4ccccc34)[C@@H](c3cccc(O)c3)N2C(=O)N1CCCl
- IC50 (HeLa): 30.3 µM
- IC50 [2]: 22.3 µM
- IC50 (MCF7): > 100 µM
- IC50 [1]: 48 µM
- IC50 (A549): > 100 µM

Structure (SMILES): O=C1[C@@H]2Cc3c([nH]c4ccccc34)[C@@H](c3cccc(O)c3)N2C(=O)N1Cc1ccc(Br)cc1
- IC50 (HeLa): 24.3 µM
- IC50 [2]: 8.9 µM
- Ratio IC50 [3]: 1.9
- IC50 (MCF7): 24.9 µM
- IC50 [1]: 88.6 µM
- IC50 (A549): 34.8 µM

Structure (SMILES): COc1cc([C@@H]2c3[nH]c4ccccc4c3C[C@H]3C(=O)N(c4cccc(C(F)(F)F)c4)C(=O)N23)ccc1O
- IC50 (HeLa): 11.4 µM
- IC50 [2]: 9.6 µM
- Ratio IC50 [3]: 1.6
- IC50 (MCF7): 48 µM
- IC50 [1]: 27.4 µM
- IC50 (A549): > 100 µM

Structure (SMILES): COc1cc([C@@H]2c3[nH]c4ccccc4c3C[C@@H]3C(=O)N(c4cccc(C(F)(F)F)c4)C(=O)N23)ccc1O
- IC50 (HeLa): 15.6 µM
- IC50 [2]: 11.7 µM
- IC50 (MCF7): 35.9 µM
- IC50 [1]: 30.7 µM
- IC50 (A549): 43.9 µM

Structure (SMILES): COc1cc([C@@H]2c3[nH]c4ccccc4c3C[C@H]3C(=O)N(CCCl)C(=O)N23)ccc1O
- IC50 (HeLa): 50 µM
- IC50 [2]: 35.5 µM
- IC50 (MCF7): 50.7 µM
- IC50 [1]: > 100 µM
- IC50 (A549): > 100 µM
